Assay results reported in US8959984B2, “Proteome-wide quantification of small molecule binding to cellular target proteins” (priority 2007, dated 2015).
pKi: −log10 of the molar value.

Tests used:
Test in all cases: binding to AX14596 beads (HeLa lysate, SILAC MS)
[1] = molecular target: T1, ALK2 (ACVR1) (Homo sapiens, UniProt Q04771)
T1 sequence (Q04771 21-509): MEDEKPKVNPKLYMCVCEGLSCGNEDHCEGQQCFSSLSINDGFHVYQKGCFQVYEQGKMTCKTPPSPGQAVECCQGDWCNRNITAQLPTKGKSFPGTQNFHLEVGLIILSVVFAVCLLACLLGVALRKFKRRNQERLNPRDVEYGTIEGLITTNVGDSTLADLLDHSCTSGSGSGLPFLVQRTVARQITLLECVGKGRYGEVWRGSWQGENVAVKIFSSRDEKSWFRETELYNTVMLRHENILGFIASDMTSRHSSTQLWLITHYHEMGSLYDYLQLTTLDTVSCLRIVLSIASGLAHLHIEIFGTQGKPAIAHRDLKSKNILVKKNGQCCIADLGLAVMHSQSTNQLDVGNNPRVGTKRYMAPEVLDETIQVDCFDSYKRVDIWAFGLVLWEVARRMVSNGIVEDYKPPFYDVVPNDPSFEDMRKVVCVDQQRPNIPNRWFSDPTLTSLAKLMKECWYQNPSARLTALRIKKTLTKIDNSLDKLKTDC
Method: (§1) Differentially SILAC-encoded cell lysates were either incubated with the inhibitor beads displaying immobilized AX14596 or control resin devoid of ligand. In parallel, the supernatant from the first binding step was subjected to a second incubation with the AX14596 resin (FIG. 4). The resulting three elution fractions were combined, resolved by gel electrophoresis, proteolytically digested and the relative abundance of the retained proteins quantified. Proteins showing considerable binding to the control resin were identified as non-specific interactors and therefore not considered further. […] These target-specific ratios were similar in “label switch” experiments (FIGS. 6a and 6c). The binding equilibrium was determined in parallel control SILAC experiments as well as the excess of the immobilized compound over its cellular targets, the excess preferably being a molar excess (FIG. 7 and FIG. 8).
(§2) Cysteine carbamidomethylation was set as a fixed modification and N-acetyl protein and oxidized methionine were allowed as variable modifications. Spectra that were determined to result from heavy labeled peptides in the pre-search detection of SILAC partners by MaxQuant were searched with the fixed modifications Lys^4, Lys^8, Arg^6 and Arg^10, whereas MS/MS spectra for which no SILAC state could be assigned before database searching were searched with Lys^4, Lys^8, Arg^6 and Arg^10 as variable modifications. The mass tolerance was set to 5 ppm for monoisotopic precursor ions and to 0.5 Da for MS/MS peaks. The minimum peptide length was set to 6 amino acids and up to three missed cleavages and three isotopically labeled amino acids were permitted per peptide. The accepted false discovery rate (FDR) was 1% for the proteins and peptides. The cut-off for the posterior error probability (PEP) of peptides was set to 10%. Peptide PEPs were determined by generating Mascot score and peptide-length-dependent histograms for both the forward and the reverse hits and then deriving the probability of a false identification for a given top-scoring peptide using Bayes' theorem. The PEPs of peptides belonging to the same proteins were then multiplied. Each peptide sequence was considered only once with the lowest PEP determined in case of multiple sequencing of the same isotopic pattern or of peptide species with different SILAC, charge or modification states. Proteins were then sorted according to their products of their peptide PEPs and included until a FDR of 1% was reached according to the fraction of reverse proteins contained in the protein list. In addition to the FDR threshold applied for protein identification, proteins were only included when they were identified with at least two peptides (of which one was required to be unique for the protein) and quantified if at least on quantifiable SILAC pair was associated with them. Outliers were not removed as protein ratios were calculated as the median instead of the average of all peptide ratios. For peptides shared among different identified proteins, SILAC ratios were only considered for the ratio of the protein identified with the highest number of unique peptides. Protein ratios for the different in vitro association experiments were corrected for the initial SILAC pooling ratio, which was determined from the median of protein ratios in pooled SILAC-encoded cell extracts.

[2] = molecular target: T2, PKD3 (PRKD3) (Homo sapiens, UniProt O94806)
T2 construct: endogenous in cells; host or cells: HeLa S3
Method: as §1, §2

[3] = molecular target: T3, YES (YES1) (Homo sapiens, UniProt P07947)
T3 construct: endogenous in cells; host or cells: HeLa S3
Method: as §1, §2

T2 sequence (O94806 whole entry): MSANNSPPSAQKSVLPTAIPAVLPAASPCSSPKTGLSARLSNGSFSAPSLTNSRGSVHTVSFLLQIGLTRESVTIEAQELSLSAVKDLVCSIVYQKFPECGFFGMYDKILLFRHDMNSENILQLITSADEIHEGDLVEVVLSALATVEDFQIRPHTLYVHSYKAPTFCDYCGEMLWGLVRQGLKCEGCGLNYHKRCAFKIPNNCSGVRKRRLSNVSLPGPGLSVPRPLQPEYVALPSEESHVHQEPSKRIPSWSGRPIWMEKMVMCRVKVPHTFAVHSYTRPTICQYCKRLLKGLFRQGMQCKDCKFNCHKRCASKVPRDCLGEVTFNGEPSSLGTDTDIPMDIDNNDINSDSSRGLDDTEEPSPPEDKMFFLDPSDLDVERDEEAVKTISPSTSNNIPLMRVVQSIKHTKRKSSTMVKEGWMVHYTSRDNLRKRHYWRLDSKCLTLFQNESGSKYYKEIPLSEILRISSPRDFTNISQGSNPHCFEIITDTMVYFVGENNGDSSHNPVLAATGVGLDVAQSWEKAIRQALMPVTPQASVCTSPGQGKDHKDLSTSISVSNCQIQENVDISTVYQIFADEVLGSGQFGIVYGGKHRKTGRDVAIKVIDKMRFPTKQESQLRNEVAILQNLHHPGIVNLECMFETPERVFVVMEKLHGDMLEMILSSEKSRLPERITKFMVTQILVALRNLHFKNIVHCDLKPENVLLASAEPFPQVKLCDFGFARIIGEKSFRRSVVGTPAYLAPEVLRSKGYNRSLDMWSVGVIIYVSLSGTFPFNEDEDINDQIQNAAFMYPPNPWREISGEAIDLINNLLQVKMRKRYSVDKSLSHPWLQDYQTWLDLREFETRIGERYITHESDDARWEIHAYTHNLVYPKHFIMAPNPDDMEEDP
T3 sequence (P07947 whole entry): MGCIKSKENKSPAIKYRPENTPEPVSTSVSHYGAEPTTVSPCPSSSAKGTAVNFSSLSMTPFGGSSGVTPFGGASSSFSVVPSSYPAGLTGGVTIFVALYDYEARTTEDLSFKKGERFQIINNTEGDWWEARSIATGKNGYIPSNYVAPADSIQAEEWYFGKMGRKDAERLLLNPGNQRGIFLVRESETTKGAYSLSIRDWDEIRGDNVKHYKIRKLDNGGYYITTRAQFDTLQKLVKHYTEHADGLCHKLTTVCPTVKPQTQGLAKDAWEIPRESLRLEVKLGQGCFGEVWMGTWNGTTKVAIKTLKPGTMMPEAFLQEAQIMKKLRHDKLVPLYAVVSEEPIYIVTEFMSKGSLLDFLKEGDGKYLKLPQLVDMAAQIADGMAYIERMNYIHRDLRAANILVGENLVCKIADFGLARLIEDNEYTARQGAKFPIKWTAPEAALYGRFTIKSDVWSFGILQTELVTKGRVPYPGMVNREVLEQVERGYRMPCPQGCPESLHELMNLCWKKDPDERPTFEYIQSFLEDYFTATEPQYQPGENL

COc1cc2ncnc(Nc3ccc(F)c(Cl)c3)c2cc1OCCCN [AX14596]
pKi [1]: 3.69 | r (3 mg/1 mg lysate) [1]: 2.57 | r (5 h/2.5 h inc. time) [1]: 1.17 | rAVERAGE (2. inc/1. inc) [1]: 0.67 | rAVERAGE (control/1. inc) [1]: 0.15 | pKi [2]: 2.82 | r (3 mg/1 mg lysate) [2]: 2.49 | r (5 h/2.5 h inc. time) [2]: 1.05 | rAVERAGE (2. inc/1. inc) [2]: 0.94 | rAVERAGE (control/1. inc) [2]: 0.08 | pKi [3]: 3.18 | r (3 mg/1 mg lysate) [3]: 2.03 | r (5 h/2.5 h inc. time) [3]: 0.98 | rAVERAGE (2. inc/1. inc) [3]: 0.87 | rAVERAGE (control/1. inc) [3]: 0.05 | % BOUND ([3]; bound to AX14596 beads): 13%
